From article PMC12687421, “Characterisation of an allosteric site in PLCγ enzymes and implications for development of their specific inhibitors” (Biochemical Journal, 2025) come the findings set out here.

pKd: −log10 of the molar value.

For orientation: pKd means the negative decadic logarithm of the Kd, by convention in mol/L. A low value points to a high Kd.

One experiment deals with T1, PLCδ1 (Homo sapiens, UniProt P51178).
T1 construct: made in house; host or cells: Escherichia coli T7 Express lysY/Iq
T1 sequence (P51178 1-756): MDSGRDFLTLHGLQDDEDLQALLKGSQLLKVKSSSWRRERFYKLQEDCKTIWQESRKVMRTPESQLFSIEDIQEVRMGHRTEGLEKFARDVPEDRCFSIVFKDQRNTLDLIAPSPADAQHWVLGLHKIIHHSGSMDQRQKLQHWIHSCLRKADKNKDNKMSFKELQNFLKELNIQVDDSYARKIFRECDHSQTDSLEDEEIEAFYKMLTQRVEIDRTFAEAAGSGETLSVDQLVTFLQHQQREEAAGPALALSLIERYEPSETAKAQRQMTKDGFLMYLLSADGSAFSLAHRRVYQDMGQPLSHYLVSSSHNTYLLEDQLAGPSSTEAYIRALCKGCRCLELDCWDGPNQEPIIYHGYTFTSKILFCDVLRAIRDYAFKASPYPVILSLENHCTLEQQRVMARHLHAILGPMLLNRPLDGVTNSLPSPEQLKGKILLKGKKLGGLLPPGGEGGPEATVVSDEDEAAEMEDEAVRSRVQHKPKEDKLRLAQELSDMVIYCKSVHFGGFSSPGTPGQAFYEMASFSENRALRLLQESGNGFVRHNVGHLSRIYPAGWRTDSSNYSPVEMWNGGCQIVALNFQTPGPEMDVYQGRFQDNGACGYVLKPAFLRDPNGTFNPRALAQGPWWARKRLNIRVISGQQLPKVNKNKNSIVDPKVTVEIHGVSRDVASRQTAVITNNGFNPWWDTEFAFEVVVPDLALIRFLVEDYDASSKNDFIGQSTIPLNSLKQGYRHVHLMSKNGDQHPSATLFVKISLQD
The experiment is described as follows: PLC activity assay 1 (A1), PLCδ1. The format is biochemical. To be noted: substrate in solution or in lipid vesicles (Figure 3C, D); except small changes at very high concentration.

Another experiment concerns the target T2, PLCγ1^wt (Homo sapiens, UniProt P19174, I813T).
T2 construct: specific activities of PLCγ1^wt and PLCγ2^wt full-length proteins; made in house; host or cells: Escherichia coli T7 Express lysY/Iq
T2 sequence (P19174 1-1291 isoform P19174-2 I813T): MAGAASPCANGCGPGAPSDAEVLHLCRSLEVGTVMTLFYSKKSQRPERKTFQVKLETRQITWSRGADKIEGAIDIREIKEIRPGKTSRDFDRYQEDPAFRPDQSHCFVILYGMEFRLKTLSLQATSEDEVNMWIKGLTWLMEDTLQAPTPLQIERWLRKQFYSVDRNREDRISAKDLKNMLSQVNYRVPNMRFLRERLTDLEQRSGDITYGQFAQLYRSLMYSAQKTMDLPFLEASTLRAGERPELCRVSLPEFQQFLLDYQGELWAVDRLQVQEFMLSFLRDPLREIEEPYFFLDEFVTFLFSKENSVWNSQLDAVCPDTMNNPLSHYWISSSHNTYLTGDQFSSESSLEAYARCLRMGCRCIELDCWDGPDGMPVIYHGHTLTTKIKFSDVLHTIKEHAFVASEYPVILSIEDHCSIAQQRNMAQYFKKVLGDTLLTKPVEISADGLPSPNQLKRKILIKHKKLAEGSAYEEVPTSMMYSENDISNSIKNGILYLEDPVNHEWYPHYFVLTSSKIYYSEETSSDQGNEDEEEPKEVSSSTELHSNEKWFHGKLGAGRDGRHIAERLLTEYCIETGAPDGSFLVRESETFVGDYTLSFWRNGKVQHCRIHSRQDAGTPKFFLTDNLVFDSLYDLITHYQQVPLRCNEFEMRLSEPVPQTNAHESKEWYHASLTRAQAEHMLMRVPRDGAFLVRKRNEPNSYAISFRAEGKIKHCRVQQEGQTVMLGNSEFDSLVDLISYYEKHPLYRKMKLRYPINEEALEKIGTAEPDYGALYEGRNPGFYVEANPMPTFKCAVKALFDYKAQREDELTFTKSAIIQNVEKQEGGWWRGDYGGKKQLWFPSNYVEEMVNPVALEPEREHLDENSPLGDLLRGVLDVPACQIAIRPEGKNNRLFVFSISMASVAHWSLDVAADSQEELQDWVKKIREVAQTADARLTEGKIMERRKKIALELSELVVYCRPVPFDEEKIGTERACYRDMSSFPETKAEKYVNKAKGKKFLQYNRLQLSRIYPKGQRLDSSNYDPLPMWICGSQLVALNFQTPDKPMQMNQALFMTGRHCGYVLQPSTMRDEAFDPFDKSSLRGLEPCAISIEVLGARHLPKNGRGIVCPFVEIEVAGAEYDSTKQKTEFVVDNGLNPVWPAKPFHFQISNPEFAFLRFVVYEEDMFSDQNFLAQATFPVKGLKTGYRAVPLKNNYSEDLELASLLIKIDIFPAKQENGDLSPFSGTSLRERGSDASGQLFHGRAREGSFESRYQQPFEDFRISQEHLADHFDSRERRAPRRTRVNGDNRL
The experiment is described as follows: Microscale thermophoresis (MST) binding. To be noted: one-site binding model. As to the method:
Proteins were diluted to 200 nM in MST buffer [50 mM Hepes.KOH, 70 mM KCl, 5% (v/v) glycerol, 0.05% (v/v) Tween-20, 2 mM DTT (pH 7.5)] and subsequently labelled by adding an equal volume of 100 nM 2nd generation RED-Tris-NTA labelling dye and incubating for 30 minutes. […] An equal volume of labelled protein was added to each ligand concentration and the mixture taken up into a standard MST capillary. Samples were measured in a Monolith NT.115 pico instrument (Nanotemper) using the Nano-RED channel. Excitation power was set to 5% and MST power set to high. All experiments were performed at 25°C. All data were analysed using the manufacturer’s MO.Control software and repeated at least three times with representative experiments shown.

Experimental for PLCδ1: The effect of nucleotide inhibition on PLC activity was measured using either a membrane-based assay with the fluorescent substrate (XY-69) incorporated into liposomes or using a small soluble substrate, Aldol 518 myo-inositol-1-phosphate (Aldol). Both methods utilised the same PLC assay buffer [20 mM Hepes-KOH, 70 mM KCl, 3 mM EGTA, 2.97 mM CaCl2, 2 mM TCEP and fatty acid-free bovine serum albumin (FAF-BSA; 50 μg/ml) (pH 7.5)]. Both assays were performed in low volume black 384-well plates (Greiner Bio-One), were composed of a final assay volume of 20 μl and were monitored in a Clariostar plate reader (BMG Labtech). The Aldol assay consisted of 4 μl of a serial dilution of ATP/ADP in assay buffer, 8 μl of PLC protein (concentration varied between PLC variants), and 8 μl of Aldol 518 myo-inositol-1-phosphate (final concentration in assay, 50 μM). […]
The XY-69 assay contained 4 μl of a serial dilution of ATP/ADP in assay buffer, 4 μl of PLC protein (concentration varied between PLC variants), and 12 μl of XY69 liposomes (final concentration in assay 1.2 mg/ml). A CLARIOstar plate reader (BMG Labtech) was used to measure the production of the fluorescent product. […] The initial linear rate of product generation was calculated and converted to a % inhibition when compared with the rate of PLC activity in the absence of nucleotide. […]

On to `Nc1ncnc2c1ncn2[C@@H]1O[C@H](COP(=O)(O)OP(=O)(O)OP(=O)(O)O)[C@@H](O)[C@H]1O` [ATP], for which, on PLCδ1, the “effect on PLC activity of PLCδ1” value is on record as “not affected”. The pKd on PLCγ1^wt is 4.30 to 4.52.
The matching figures for `Nc1ncnc2c1ncn2[C@@H]1O[C@H](COP(=O)(O)OP(=O)(O)O)[C@@H](O)[C@H]1O` [ADP]: “not affected” and 4.30 to 4.52.
